For orientation: IC50 means the concentration needed to halve the response being measured.

16 compounds from patent EP4818178A1, “PREPARATION AND USE OF PYRIMIDOTHIOPYRANONE KRAS MUTANT PROTEIN INHIBITOR” (Ya Therapeutics Inc, priority 2024, dated 2025) can be followed below.

The target of this test is KRasG12D (Homo sapiens, UniProt P01116, G12D). In words: KRAS inhibitory activity test, TR-FRET (inhibition of binding of KRasG12D to GTP, SOS/GTP nucleotide exchange). The test is classed as biochemical. The following applies: read-out: IC50 values of the compounds for inhibiting KRAS enzymes, G12D. The protocol: • 1. […] Reagent Preparation: • a. Storage Reagents:
Prepare a 1L solution by mixing 20mL of 1000mM HEPES, 20mL of 500mM EDTA, 10mL of 5M sodium chloride, 0.1mL of 100% Tween 20, and 949.9mL of water. Sterilize by filtration and store at 4°C.
Prepare a 1L solution by mixing 20mL of 1000mM HEPES, 10mL of 1000mM magnesium chloride, 30mL of 5M sodium chloride, 0.05mL of 100% Tween 20, and 939.95mL of water. Sterilize by filtration and store at 4°C. 3) KRAS/Bodipy GDP/Tb-SA Mixture: Mix 9.5 µL of 95 µM KRasG12D protein with 440.5 µL of KRAS nucleotide exchange buffer. Incubate at room temperature for 1 hour. Then, mix with 8.4 µL of 17.9 µM Tb-SA, 1.8 µL of 5 mM Bodipy GDP, and 9539.8 µL of KRAS experimental buffer to prepare […]. After mixing, incubate at room temperature for 6 hours and store at -80°C.
• 1) KRAS Enzyme Solution: Mix 73.3 µL of KRAS/Bodipy GDP/Tb-SA mixture with 2126.7 µL of KRAS experimental buffer to prepare a 2200 µL solution. • 2) SOS/GTP Mixture
c. Experimental Procedure: Mix 1.59 µL of 166 µM SOS protein with 198 µL of 100 mM... GTP and 0.41 µL KRAS buffer were prepared to a 2200 µL solution. The stock solution concentration of the control compound was 1 mM, and the stock solution concentration of the test compound was 10 mM. 9 µL of the control compound and the test compound were transferred to a 384-LDV plate. The compound on the LDV plate was 3-fold diluted 10-point using Bravo. 9 nL of the compound on the LDV plate was transferred to the experimental plate using ECHO. 3 µL of a 3 nM Kras/0.5 nM TB-SA/30 nM BodipyGDP mixture and 3 µL of Ras buffer were added to each well of the experimental plate using a Dragonfly autopilot. The plate was centrifuged at 1000 rpm for 1 minute. The plate was incubated at room temperature for 1 hour. 3 µL of 120 nM SOS/9 mM KRAS buffer was added to each well of the experimental plate using a Dragonfly autopilot. The […] was centrifuged at 1000 rpm for 1 minute; the plate was incubated at room temperature for 1 hour; the plate was read and the data were recorded using Envision; the data were analyzed using Excel and Xlfit to calculate the IC50of the test compound. "++++" indicates IC50≤ 10 nM; "+++" indicates 10 nM < IC50≤ 100 nM; "++" indicates 100 nM < IC50≤ 2000 nM; "+" indicates 2000 nM < IC50.
For orientation: TR-FRET usually uses a lanthanide donor and a delayed reading to cut background.
For “7-(3-amino-2-fluoro-5-methyl-6-(trifluoromethyl)phenyl)-4-(1R,5S)-3,8-diazabicyclo [3.2.1]octane-3-yl)-2-(((2R,7AS)-2-fluorotetrahydro-1H-pyrrolazin-7a(5H)-yl)methox y)-7,8-dihydro-5H-thiopyrano[4,3-d]pyrimidine-6,6-dioxide [Compound 30]”, the IC50 is no more than 10 nM.

With “7-(3-amino-2-fluoro-5-methyl-6-(trifluoromethyl)phenyl)-4-(1R,5S)-3,8-diazabicyclo [3.2.1]octane-3-yl)-2-(((2R,7AS)-2-fluorotetrahydro-1H-pyrrolazin-7a(5H)-yl)methox y)-7,8-dihydro-5H-thiopyrano[4,3-d]pyrimidine-6,6-dioxide [Compound 36]”, the IC50 was no more than 10 nM.

On to “7-(3-amino-2-fluoro-5-methyl-6-(trifluoromethyl)phenyl)-4-(3,8-diazabicyclo[3.2.1]o ctane-3-yl)-2-(((S)-2-(difluoromethylene)tetrahydro-1H-pyrrolazin-7a(5H)-yl)methox y)-7,8-dihydro-5H-thiopyrano[4,3-d]pyrimidine-6,6-dioxide [Compound 9]”, for which the IC50 was no more than 10 nM.

Take `Cc1cc(N)c(F)c([C@@H]2Cc3nc(OC[C@@]45CCCN4C[C@H](F)C5)nc(N4C[C@H]5CC[C@@H](C4)N5)c3CS2(=O)=O)c1C(F)(F)F` [Compound 1A, (7S)-7-(3-amino-2-fluoro-5-methyl-6-(trifluoromethyl)phenyl)-4-((1R,5S)-3,8-diazabicyclo[3.2.1]octane-3-yl)-2-(((2R,7AS)-2-fluorotetrahydro-1H-pyrrolazin-7a(5H)-yl)methoxy)-7,8-dihydro-5H-thiopyrano[4,3-d]pyrimidine 6,6-Dioxide]: the IC50 was no more than 10 nM.

For `Cc1cc(N)c(F)c([C@H]2Cc3nc(OC[C@@]45CCCN4C[C@H](F)C5)nc(N4C[C@H]5CC[C@@H](C4)N5)c3CS2(=O)=O)c1C(F)(F)F` [Compound 1B, (7R)-7-(3-amino-2-fluoro-5-methyl-6-(trifluoromethyl)phenyl)-4-((1R,5S)-3,8-diazabicyclo[3.2.1]octane-3-yl)-2-(((2R,7AS)-2-fluorotetrahydro-1H-pyrrolazin-7a(5H)-yl)methoxy)-7,8-dihydro-5H-thiopyrano[4,3-d]pyrimidine 6,6-Dioxide], the IC50 lay in the range of 10 to 100 nM.

As to `Cc1cc(O)c(F)c([C@@H]2Cc3nc(OC[C@@]45CCCN4C[C@H](F)C5)nc(N4C[C@H]5CC[C@@H](C4)N5)c3CS2(=O)=O)c1C(F)(F)F` [Compound 2A, (7S)-4-((1R,5S)-3,8-diazabicyclo[3.2.1]octane-3-yl)-7-(2-fluoro-3-hydroxy-5-methyl-6-(trifluoromethyl)phenyl)-2-(((2R,7AS)-2-fluorotetrahydro-1H-pyrrolazin-7a(5H)-yl)methoxy)-7,8-dihydro-5H-thiopyrano[4,3-d]pyrimidine-6,6-dioxide], the IC50 was in the range of 10 to 100 nM.

For `Cc1cc(O)c(F)c([C@H]2Cc3nc(OC[C@@]45CCCN4C[C@H](F)C5)nc(N4C[C@H]5CC[C@@H](C4)N5)c3CS2(=O)=O)c1C(F)(F)F` [Compound 2B, (7R)-4-((1R,5S)-3,8-diazabicyclo[3.2.1]octane-3-yl)-7-(2-fluoro-3-hydroxy-5-methyl-6-(trifluoromethyl)phenyl)-2-(((2R,7AS)-2-fluorotetrahydro-1H-pyrrolazin-7a(5H)-yl)methoxy)-7,8-dihydro-5H-thiopyrano[4,3-d]pyrimidine-6,6-dioxide], the concentration for half-maximal inhibition (IC50) is no more than 10 nM.

In the case of `Cc1cc(N)nc([C@@H]2Cc3nc(OC[C@@]45CCCN4C[C@H](F)C5)nc(N4C[C@H]5CC[C@@H](C4)N5)c3CS2(=O)=O)c1C(F)(F)F` [Compound 3A, (7S)-7-(6-amino-4-methyl-3-(trifluoromethyl)pyridin-2-yl)-4-((1R,5S)-3,8-diazabicyclo[3.2.1]octane-3-yl)-2-(((2R,7AS)-2-fluorotetrahydro-1H-pyrrolazin-7a(5H)-yl)methoxy)-7,8-dihydro-5H-thiopyrano[4,3-d]pyrimidine 6,6-Dioxide], the IC50 was 10 to 100 nM.

Turning to `Cc1cc(N)nc([C@H]2Cc3nc(OC[C@@]45CCCN4C[C@H](F)C5)nc(N4C[C@H]5CC[C@@H](C4)N5)c3CS2(=O)=O)c1C(F)(F)F` [Compound 3B, (7R)-7-(6-amino-4-methyl-3-(trifluoromethyl)pyridin-2-yl)-4-((1R,5S)-3,8-diazabicyclo[3.2.1]octane-3-yl)-2-(((2R,7AS)-2-fluorotetrahydro-1H-pyrrolazin-7a(5H)-yl)methoxy)-7,8-dihydro-5H-thiopyrano[4,3-d]pyrimidine 6,6-Dioxide], the concentration for half-maximal inhibition (IC50) was no more than 10 nM.

For `Cc1cc(O)nc([C@@H]2Cc3nc(OC[C@@]45CCCN4C[C@H](F)C5)nc(N4C[C@H]5CC[C@@H](C4)N5)c3CS2(=O)=O)c1C(F)(F)F` [Compound 4A, (7S)-4-((1R,5S)-3,8-diazabicyclo[3.2.1]octane-3-yl)-2-(((2R,7AS)-2-fluorotetrahydro-1H-pyrrolazin-7a(5H)-yl)methoxy)-7-(6-hydroxy-4-methyl-3-(trifluoromethyl)pyridin-2-yl)-7,8-dihydro-5H-thiopyrano[4,3-d]pyrimidine-6,6-dioxide], the IC50 is no more than 10 nM.

For `Cc1cc(O)nc([C@H]2Cc3nc(OC[C@@]45CCCN4C[C@H](F)C5)nc(N4C[C@H]5CC[C@@H](C4)N5)c3CS2(=O)=O)c1C(F)(F)F` [Compound 4B, (7R)-4-((1R,5S)-3,8-diazabicyclo[3.2.1]octane-3-yl)-2-(((2R,7AS)-2-fluorotetrahydro-1H-pyrrolazin-7a(5H)-yl)methoxy)-7-(6-hydroxy-4-methyl-3-(trifluoromethyl)pyridin-2-yl)-7,8-dihydro-5H-thiopyrano[4,3-d]pyrimidine-6,6-dioxide], the IC50 was 10 to 100 nM.

As for `Cc1cc(N)c(F)c([C@@H]2Cc3nc(OC[C@@]45CCCN4C[C@H](F)C5)nc(N4CCC[C@@](C)(O)C4)c3CS2(=O)=O)c1C(F)(F)F` [Compound 5A, (7S)-7-(3-amino-2-fluoro-5-methyl-6-(trifluoromethyl)phenyl)-2-(((2R,7AS)-2-fluorotetrahydro-1H-pyrrolazin-7a(5H)-yl)methoxy)-4-((R)-3-hydroxy-3-methylpiperidin-1-yl)-7,8-dihydro-5H-thiopyrano[4,3-d]pyrimidine-6,6-dioxide], the IC50 lay within 10 to 100 nM.

`Cc1cc(N)c(F)c([C@H]2Cc3nc(OC[C@@]45CCCN4C[C@H](F)C5)nc(N4CCC[C@@](C)(O)C4)c3CS2(=O)=O)c1C(F)(F)F` [Compound 5B, (7R)-7-(3-amino-2-fluoro-5-methyl-6-(trifluoromethyl)phenyl)-2-(((2R,7AS)-2-fluorotetrahydro-1H-pyrrolazin-7a(5H)-yl)methoxy)-4-((R)-3-hydroxy-3-methylpiperidin-1-yl)-7,8-dihydro-5H-thiopyrano[4,3-d]pyrimidine-6,6-dioxide]: the IC50 was no more than 10 nM.

With `Cc1cc(O)c(F)c([C@@H]2Cc3nc(OC[C@@]45CCCN4C[C@H](F)C5)nc(N4CCC[C@@](C)(O)C4)c3CS2(=O)=O)c1C(F)(F)F` [Compound 6A, (7S)-7-(2-fluoro-3-hydroxy-5-methyl-6-(trifluoromethyl)phenyl)-2-(((2R,7AS)-2-fluorotetrahydro-1H-pyrrolazin-7a(5H)-yl)methoxy)-4-((R)-3-hydroxy-3-methylpiperidin-1-yl)-7,8-dihydro-5H-thiopyrano[4,3-d]pyrimidine-6,6-dioxide], the IC50 was no more than 10 nM.

With `Cc1cc(O)c(F)c([C@H]2Cc3nc(OC[C@@]45CCCN4C[C@H](F)C5)nc(N4CCC[C@@](C)(O)C4)c3CS2(=O)=O)c1C(F)(F)F` [Compound 6B, (7R)-7-(2-fluoro-3-hydroxy-5-methyl-6-(trifluoromethyl)phenyl)-2-(((2R,7AS)-2-fluorotetrahydro-1H-pyrrolazin-7a(5H)-yl)methoxy)-4-((R)-3-hydroxy-3-methylpiperidin-1-yl)-7,8-dihydro-5H-thiopyrano[4,3-d]pyrimidine-6,6-dioxide], the IC50 fell in the range of 10 to 100 nM.

With `Cc1cc(N)nc([C@@H]2Cc3nc(OC[C@@]45CCCN4C[C@H](F)C5)nc(N4CCC[C@@](C)(O)C4)c3CS2(=O)=O)c1C(F)(F)F` [Compound 7A, (7S)-7-(6-amino-4-methyl-3-(trifluoromethyl)pyridin-2-yl)-2-(((2R,7AS)-2-fluorotetrahydro-1H-pyrrolazin-7a(5H)-yl)methoxy)-4-((R)-3-hydroxy-3-methylpiperidin-1-yl) -7,8-dihydro-5H-thiopyrano[4,3-d]pyrimidine-6,6-dioxide], the IC50 is no more than 10 nM.
